Key:
Assay in all cases: Cell proliferation assay (MTS)
Format in all cases: cell-based, human
CC20 = system: CC20
Description: (§1) The sensitivity of a panel of human cancer cell lines to the effects of compounds was determined in a standard proliferation assay.
(§2) Cells were plated in 96 well plates at densities of 1000-6000 cells per well in RPMI media containing 10% FBS. After incubation at 37° C. for 16 hours, various concentrations of compound were added to the assay plates. After incubation for an additional 72 h, the viable cells were determined by the addition of MTS reagent (Promega #3582) to each well for 2 h. MTS is a tetrazolium salt that is bioreduced by metabolically active cells in the presence of an electron coupling reagent to formazan. The formazan product was then quantitated by absorbance at 490 nm, as an indicator of the relative number of live cells. In order to determine the GI50 (concentration at which growth of cells was inhibited by 50%) the relative number of cells present at the time of drug addition was determined by comparison with the MTS readout before the drug was added, and this value was subtracted from the 72 hr value of untreated cells as a measure of cell growth during the assay.

JJN3 = system: JJN3
Description: as §1, §2

H2291 = system: H2291
Description: (§3) The sensitivity of a panel of human cancer cell lines to the effects of compounds was determined in a standard proliferation assay. Cell lines were sourced through the AstraZeneca Cell Bank.
as §2

H647 = system: H647
Description: as §1, §2

H1437 = system: H1437
Description: as §1, §2

H2126 = system: H2126
Description: as §3, §2

AZ521 = system: AZ521
Description: as §1, §2

T47D = system: T47D
Description: as §1, §2

JIMT1 = system: JIMT1
Description: as §1, §2

KATOIII = system: KATOIII
Description: as §1
Cells were plated in 96 well plates at densities of 1000-6000 cells per well in RPMI media containing 10% FBS. After incubation at 37° C. for 16 hours, various concentrations of compound were added to the assay plates. After incubation for an additional 72 h, the viable cells were determined by the addition of MTS reagent (Promega #3582) to each well for 2 h. […] The formazan product was then quantitated by absorbance at 490 nm, as an indicator of the relative number of live cells. In order to determine the GI50 (concentration at which growth of cells was inhibited by 50%) the relative number of cells present at the time of drug addition was determined by comparison with the MTS readout before the drug was added, and this value was subtracted from the 72 hr value of untreated cells as a measure of cell growth during the assay.

HCC1419 = system: HCC1419
Description: as §1, §2

MCF7 = system: MCF7
Description: as §1, §2

CALU1 = system: CALU1
Description: as §1, §2

[1] = Homo sapiens, Breast, PIK3CA MUT

CCn1nc(C2CCN(C(=O)CCO)CC2)nc1-c1cnc(N)c(-c2nnc(C(C)(C)C)o2)n1 [Example 3, 1-(4-(5-(5-amino-6-(5-tert-butyl-1,3,4-oxadiazol-2-yl)pyrazin-2-yl)-1-ethyl-1H-1,2,4-triazol-3-yl)piperidin-1-yl)-3-hydroxypropan-1-one]
Category (CC20): Resistant (resistant (GI50>1.0 μM)) | GI50 (CC20; Homo sapiens, Colon, PIK3CA WT): 30 µM | Category (JJN3): Resistant (resistant (GI50>1.0 μM)) | GI50 (JJN3; Homo sapiens, JJN-3, Blood/lymph, PIK3CA WT): 30 µM | Category (H2291): Resistant (resistant (GI50>1.0 μM)) | GI50 (H2291; Homo sapiens, NCI-H2291, Lung, PIK3CA WT): 3.29 µM | Category (H647): Resistant (resistant (GI50>1.0 μM)) | GI50 (H647; Homo sapiens, NCI-H647, Lung, PIK3CA WT): 11.3 µM | Category (H1437): Resistant (resistant (GI50>1.0 μM)) | GI50 (H1437; Homo sapiens, NCI-H1437, Lung, PIK3CA WT): 30 µM | Category (H2126): Resistant (resistant (GI50>1.0 μM)) | GI50 (H2126; Homo sapiens, NCI-H2126, Lung, PIK3CA WT): 12.9 µM | Category (AZ521): Resistant (resistant (GI50>1.0 μM)) | GI50 (AZ521; Homo sapiens, AZ-521, Duodenum, PIK3CA WT): 2.06 µM | Category (T47D): Sensitive (sensitive (GI50<=1.0 μM)) | GI50 (T47D; [1]): 0.198 µM | Category (JIMT1): Resistant (resistant (GI50>1.0 μM)) | GI50 (JIMT1; Homo sapiens, JIMT-1, Breast, PIK3CA MUT): 1.46 µM | Category (KATOIII): Resistant (resistant (GI50>1.0 μM)) | GI50 (KATOIII; Homo sapiens, KATO III, Stomach, PIK3CA WT): 9.15 µM | Category (HCC1419): Sensitive (sensitive (GI50<=1.0 μM)) | GI50 (HCC1419; Homo sapiens, Breast, PIK3CA WT): 0.78 µM | Category (MCF7): Sensitive (sensitive (GI50<=1.0 μM)) | GI50 (MCF7; [1]): 0.309 µM | Category (CALU1): Resistant (resistant (GI50>1.0 μM)) | GI50 (CALU1; Homo sapiens, Calu-1, Lung, PIK3CA WT): 16 µM

Source: US9156831B2, “Chemical compounds” (ASTRAZENECA AB, priority 2013, dated 2015)
